According to patent US20080187911A1, “Methods and compositions for analysis of mitochondrial-related gene expression” (priority 2003, published 2008):

Key:
[1] = tested on: mitochondrial DNA encoded gene expression; experiment: Microarray analysis of mitochondrial DNA encoded gene expression in response to 3-nitropropionic acid; format: cell-based; conditions: 3 NPA treatments at 6, 12 and 26 hours; inhibition of Complex II (succinic dehydrogenase)
Method: FIGS. 5A-5B. Analysis of mitochondrial DNA encoded gene expression. FIG. 5A—response to 3-nitropropionic acid, an inhibitor of Complex II—succinic dehydrogenase. […] FIG. 5B-analysis of mitochondrial DNA encoded gene expression in trypanosome infected heart tissue.
Analysis of mitochondrial DNA encoded gene expression in response to 3-nitropropionic acid (3NPA), an inhibitor of Complex II—succinic dehydrogenase was performed (FIG. 5A, Table 5). The 3 NPA treatments were at 6, 12 and 26 hours.

[2] = tested on: mouse mitochondrial genes in AML-12 mouse liver cells; experiment: Microarray analysis of the effects of rotenone on expression of mouse mitochondrial genes; format: cell-based; conditions: AML-12 mouse liver cells in culture
From the text: FIG. 4. The effects of rotenone, an inhibitor of mitochondrial Complex I, on the expression of mouse mitochondrial genes in AML-12 mouse liver cells in culture.
The effects of rotenone, an inhibitor of mitochondrial Complex I, on the expression of mouse mitochondrial genes in AML-12 mouse liver cells in culture were examined (FIG. 4; Table 4). […] Spots A1-G11 represent mitochondrial related nuclear encoded genes; spots G12-H12 represent the 13 genes encoded by mitochondrial DNA. It should be noted that in subsequent microarray designs (constructions) the mitochondrial DNA encoded genes G12-H12 were removed from the filters and arrayed separately. Thus, the G12-H12 spots were replaced with nuclear encoded genes. […] E4 and E5 represent the […] and 16S mitochondrial ribosomal RNAs.

| Structure (SMILES) | synthesis of mitochondrial encoded mRNAs and ribosomal RNAs [1] | mRNA pool levels of mitochondrial-related genes on the microarray ([2]; genes named: A11 ATP synthase lipid binding proteins, B8 ADP, ATP carrier protein, B9 cytochrome C oxidase chain VIIa, D12 chaperonin 10, E12 pyruvate carboxylase, H7 Complex I: Protein Dehydrogenase chain 3) | production of mRNAs of Complex I proteins (H7, H10) ([2]; inhibition of Complex I, suggested compensatory response) |
| --- | --- | --- | --- |
| O=C(O)CC[N+](=O)[O-] [3-nitropropionic acid] | stimulates the synthesis of mitochondrial encoded mRNAs and the 23S and 16S ribosomal RNAs | – | – |
| C=C(C)[C@H]1Cc2c(ccc3c2O[C@@H]2COc4cc(OC)c(OC)cc4[C@@H]2C3=O)O1 [rotenone] | – | up-regulated | may stimulate the production of mRNAs of Complex I proteins (H7, H10) |
